In assay [1] the target is T1, human recombinant PDE9 protein (Homo sapiens, UniProt O76083).
T1 construct: made in house; host or cells: COS-1 cells, transient transfection of pcDNA 3.1(+); supernatant of the cell homogenate
The assay is described as follows: Measurement of PDE9-inhibiting activity. To be noted: human recombinant PDE9, [3H]-cGMP substrate; read-out: Inhibitory Activity (IC50 value) PDE 9. Type of assay: biochemical. From the text:
(1) Measurement of PDE9-Inhibiting Activity:
1) Preparation of Human Recombinant PDE9 Protein
Based on the base sequence of hsPDE9A1 registered with GenBank database (accession No.: AF048837), hsPDE9A1 fragment was amplified by polymerase chain reaction under the following conditions, using the following sequence (Amasham Pharmacia Biotech) as the primer and Human Prostate […] cDNA library (CLONTECH) as the template DNA, with Pfu Turbo DNA polymerase ([…]):
hPDE9-5A primer: […] [SEQ ID NO: 1]
hPDE9-3A primer: […] [SEQ ID NO: 2]
PCR condition: [95° C., 5 min]×1 cycle, [(95° C., 1 min), (58° C., 2 min), (72° C., 3 min)]×25 cycle, [72° C., 10 min]×1 cycle
Thus obtained hsPDE9A1 fragment was given a restricted enzymatic treatment with NheI and NotI, and thereafter inserted into pcDNA 3.1(+) expression vector (Invitrogen) to let it serve as a human PDE9 expression vector.
Human PDE9 expression vector-transformed Escherichia coli was mass incubated to produce a large amount of PDE9 expression vector, which was transiently transfected into COS-1 cells, with LIPOFECTAMINE 2000 Reagent (GIBCO). […]
To 150 μL of buffer B (70 mmol/L Tris-HCl, pH7.5; 16.7 mmol/L MgCl2, 33.3 nmol/L [^3H]-cGMP) solution containing [^3H]-cGMP (specific activity=244.2 GBq/mmol) at a concentration of 33.3 nmol/L, 50 μL of a solution of the compound to be evaluated (formed by dissolving the compound in DMSO and diluting it with distilled water to DMSO concentration of 5%) and 50 μL of the PDE9 protein solution as prepared in the above, as diluted with buffer C (40 mmol/L Tris-HCl, pH7.5, 15 mmol/L benzamidine, 15 mmol/L 2-mercaptoethanol, 1 μg/mL Pepstatin A, 1 μg/mL Leupeptin) by 1,500×, were added under cooling with ice. […] Thereafter [^3H]-guanosine was eluted with 3 mL of 3 mol/L aqueous ammonia and its radiation activity was measured with liquid scintillation counter.
PDE9 inhibition of the tested compound can be calculated by the following formula: […]
From the inhibition ratios at various concentration levels of each tested compound, its IC50 value against PDE9 was determined.

The target in assay [2] is T2, human recombinant PDE5 protein (Homo sapiens, UniProt O76074).
T2 construct: made in house; host or cells: COS-1 cells, transient transfection of pcDNA 3.1(+); supernatant of the cell homogenate
The assay is described as follows: Measurement of PDE5-inhibiting activity. Type of assay: biochemical. To be noted: human recombinant PDE5, [3H]-cGMP substrate; read-out: Inhibitory Activity (IC50 value) PDE 5. From the text: (2) Measurement of PDE5-Inhibiting Activity:
1) Preparation of Human Recombinant PDE5 Protein
Based on the base sequence of hsPDE5A1 registered with GenBank database (accession No.: NM_001083), hsPDE5A1 fragment was amplified by polymerase chain reaction under the following conditions, using the following sequence (SIGMA GENOSYS) as the primer and Human Prostate […] cDNA library (CLONTECH) as the template DNA, with KDD plus DNA polymerase (TOYOBO): […]
hPDE5-5′E primer: […] [SEQ ID NO: 3] […]
hPDE5-3′ primer: […] [SEQ ID NO: 4]
PCR condition: [94° C., 2 min]×1 cycle, [(94° C., 30 sec), (65° C., 30 sec), (68° C., 3 min)]×25 cycle, [68° C., 6 min]×1 cycle Thus obtained hsPDE5A1 fragment was given a restricted enzymatic treatment with XBaI and EcoRI, and thereafter inserted into pcDNA 3.1(+) expression vector (Invitrogen) to let it serve as a human PDE5 expression vector.
Human PDE5 expression vector-transformed Escherichia coli was mass incubated to produce a large amount of PDE5 expression vector, which was transiently transfected into COS-1 cells, with LIPOFECTAMINE 2000 Reagent (GIBCO). The cells were homogenized in ice-cooled buffer A and centrifuged at 4° C., 14,000×g for 10 minutes. The supernatant was isolated to provide human recombinant PDE5 protein solution.
2) Measurement of PDE5-Inhibiting Activity
By a method similar to the measurement of PDE9-inhibiting activity, PDE5-inhibiting activity of the test compounds was measured, their inhibition was calculated and IC50 value to PDE5 of each of the compounds was determined. The results are shown in the following Table A, concurrently with the compounds' IC50 values against PDE9.

pIC50: −log10 of the molar value.

T1 sequence (O76083 whole entry): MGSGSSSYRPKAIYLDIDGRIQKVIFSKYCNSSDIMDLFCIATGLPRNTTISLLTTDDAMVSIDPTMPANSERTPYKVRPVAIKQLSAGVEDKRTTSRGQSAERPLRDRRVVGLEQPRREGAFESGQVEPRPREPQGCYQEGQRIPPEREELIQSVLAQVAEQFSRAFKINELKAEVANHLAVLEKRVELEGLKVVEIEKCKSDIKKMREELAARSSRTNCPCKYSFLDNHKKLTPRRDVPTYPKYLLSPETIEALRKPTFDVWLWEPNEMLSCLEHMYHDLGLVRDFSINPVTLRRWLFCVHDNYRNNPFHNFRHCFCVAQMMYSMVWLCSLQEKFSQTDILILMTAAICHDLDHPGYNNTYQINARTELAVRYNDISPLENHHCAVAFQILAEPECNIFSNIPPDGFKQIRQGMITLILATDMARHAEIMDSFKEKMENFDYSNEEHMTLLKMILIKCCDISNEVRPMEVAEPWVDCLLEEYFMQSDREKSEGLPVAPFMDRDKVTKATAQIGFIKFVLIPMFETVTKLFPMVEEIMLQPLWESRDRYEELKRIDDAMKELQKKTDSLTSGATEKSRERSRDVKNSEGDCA

A word on the pIC50: it is the negative decadic logarithm of the IC50, by convention in mol/L. Turning to “2-(Cyclopent-1-enylmethyl)-5-methyl-4-thioxo-3,4-dihydrothieno[2,3-d]pyrimidine-6-carboxylic acid and 2-cyclopentylidenemethyl-5-methyl-4-thioxo-3,4-dihydrothieno-[2,3-d]pyrimidine-6-carboxylic acid [Example 117]”, the results for the pIC50 in assay [1] and in assay [2] were 7.62 and 6.07, respectively.
For `Cc1c(C(=O)O)sc2nc(Cc3ccc(Cl)s3)[nH]c(=O)c12` [Example 3, 2-(5-Chlorothiophen-2-ylmethyl)-5-methyl-4-oxo-3,4-dihydrothieno[2,3-d]pyrimidine-6-carboxylic acid] the same measures were 7.47 and 5.16.
As to `Cc1c(C(=O)O)sc2nc(Cc3ccc(F)c(Cl)c3)[nH]c(=O)c12` [Example 52, 2-(3-Chloro-4-fluorobenzyl)-5-methyl-4-oxo-3,4-dihydrothieno[2,3-d]pyrimidine-6-carboxylic acid], the pIC50 in assay [1] is 7.42; in assay [2] it was 5.47.

The record behind these values is patent US8377944B2, “Thienopyrimidine derivatives” (ASKA Pharmaceutical Co., Ltd., priority 2005, dated 2013).
